Results as given in patent US20260028365A1 (BIOGEN MA INC., priority 2022, published 2026).
Read-outs that look alike come from different tables or passages of the source.

Experiments:
JH2 domain of human Tyk2 = JH2 domain of human Tyk2 (Homo sapiens (Human), UniProt P29597); experiment: JH2 Biochemical Assay (TR-FRET probe displacement); type: binding
Method: The inhibitory potency of compounds of the disclosure against the kinase activity of recombinantly generated JH2 domain of human Tyk2 was evaluated in a plate-based assay using a TR-FRET assay platform. Briefly, 2 nM of recombinant JH2 domain [10×His-tagged TYK2 JH2 domain (amino acid 575-876)] was combined with 2 nM probe ((S)-6-amino-9-(2-carboxy-4-((1-(3-(8-methyl-5-(methylamino)-8H-imidazo[4,5-d]thiazolo[5,4-b]pyridin-2-yl)phenyl)ethyl)carbamoyl)phenyl)-3-iminio-5-sulfo-3H-xanthene-4-sulfonate), 0.1 nM Tb-labeled anti-His antibody, and compounds of disclosure for 60 minutes. Compounds are tested at either 10 μM or 1 μM top concentration, 10 points of 3-fold dilution. The TR-FRET signal inversely correlates to the amount of probe displaced by compounds and signal was calculated by taking the ratio of fluorescence at 520 nm and 495 nm. The data was normalized and the percent activity versus log concentration of compound was fitted with a 4-parameter logistic model to generate IC50 curves.

Tyk2 = Tyk2 (Homo sapiens (Human), UniProt P29597); experiment: pSTAT4 Cell Assay (MSD, NK92 cells); type: cell-based
[1] = JH2 domain of human Tyk2, TR-FRET probe displacement
[2] = TR-FRET probe displacement, JH2 domain

Chain of JH2 domain of human Tyk2 (P29597 575-876): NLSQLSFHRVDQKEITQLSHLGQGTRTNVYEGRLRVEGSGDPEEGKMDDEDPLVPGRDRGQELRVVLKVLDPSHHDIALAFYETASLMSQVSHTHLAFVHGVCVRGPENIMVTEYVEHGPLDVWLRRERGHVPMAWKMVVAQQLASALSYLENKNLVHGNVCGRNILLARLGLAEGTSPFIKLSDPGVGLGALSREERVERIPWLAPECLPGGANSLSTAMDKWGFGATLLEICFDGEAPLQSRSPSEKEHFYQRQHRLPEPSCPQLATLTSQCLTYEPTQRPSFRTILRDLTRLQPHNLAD
Chain of Tyk2 (P29597 whole entry, the tested form may be a part): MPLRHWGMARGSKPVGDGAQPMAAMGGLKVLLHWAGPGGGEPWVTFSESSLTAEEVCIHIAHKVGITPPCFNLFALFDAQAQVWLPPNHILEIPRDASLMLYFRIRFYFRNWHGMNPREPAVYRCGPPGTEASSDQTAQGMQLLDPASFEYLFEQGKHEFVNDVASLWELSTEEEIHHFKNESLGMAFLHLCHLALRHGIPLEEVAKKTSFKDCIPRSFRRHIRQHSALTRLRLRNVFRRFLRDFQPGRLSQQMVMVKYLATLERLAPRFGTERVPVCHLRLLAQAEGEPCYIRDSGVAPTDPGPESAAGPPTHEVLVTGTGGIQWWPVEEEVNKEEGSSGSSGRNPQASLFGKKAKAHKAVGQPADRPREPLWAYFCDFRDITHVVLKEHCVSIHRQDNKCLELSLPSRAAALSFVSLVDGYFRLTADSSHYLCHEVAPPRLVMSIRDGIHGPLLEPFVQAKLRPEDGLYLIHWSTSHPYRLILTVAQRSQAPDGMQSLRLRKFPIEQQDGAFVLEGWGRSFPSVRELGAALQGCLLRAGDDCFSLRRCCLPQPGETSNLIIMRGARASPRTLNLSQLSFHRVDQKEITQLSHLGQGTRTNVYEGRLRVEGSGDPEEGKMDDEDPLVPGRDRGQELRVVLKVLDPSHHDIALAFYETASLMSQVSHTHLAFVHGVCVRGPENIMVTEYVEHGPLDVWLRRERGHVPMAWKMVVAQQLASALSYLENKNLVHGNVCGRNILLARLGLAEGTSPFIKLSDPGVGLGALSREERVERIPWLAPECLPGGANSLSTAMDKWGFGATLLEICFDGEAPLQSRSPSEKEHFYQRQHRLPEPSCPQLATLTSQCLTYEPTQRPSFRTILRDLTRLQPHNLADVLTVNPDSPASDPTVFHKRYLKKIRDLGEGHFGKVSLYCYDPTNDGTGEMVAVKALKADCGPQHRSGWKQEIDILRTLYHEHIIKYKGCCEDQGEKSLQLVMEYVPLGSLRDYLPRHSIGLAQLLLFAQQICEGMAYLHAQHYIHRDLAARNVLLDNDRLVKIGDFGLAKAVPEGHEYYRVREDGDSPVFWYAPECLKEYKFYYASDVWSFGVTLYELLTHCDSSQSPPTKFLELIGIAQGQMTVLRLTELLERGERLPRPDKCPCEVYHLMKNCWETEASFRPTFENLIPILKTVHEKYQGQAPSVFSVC

Structure (SMILES)	IC50 (JH2 domain of human Tyk2; [1])	further results
CC(=O)Nc1cc(Nc2cc(C)nc(C(C)(F)F)n2)c(OC[C@H]2C[C@H]2CF)cn1 (racemic) [Example 428, Cis-rac-N-(4-((2-(1,1-difluoroethyl)-6-methylpyrimidin-4-yl)amino)-5-((2-(fluoromethyl)cyclopropyl)methoxy)pyridin-2-yl)acetamide]	≤ 10 nM	IC50 (Tyk2; MSD): 10 to 100 nM
CCOc1cnc(NC(C)=O)cc1Nc1cc(C)nc(C2CC2(C)C)n1 (racemic) [Example 518, rac-(R)-N-(4-((2-(2,2-dimethylcyclopropyl)-6-methylpyrimidin-4-yl)amino)-5-ethoxypyridin-2-yl)acetamide]	≤ 10 nM	IC50 (Tyk2; MSD): 100 to 1000 nM
CC(=O)Nc1cc(Nc2cc(C)nc(C(C)(F)F)n2)c(-c2cccc(C(C)O)n2)cn1 (racemic) [Example 638, rac-(R)-N-(4′-((2-(1,1-difluoroethyl)-6-methylpyrimidin-4-yl)amino)-6-(1-hydroxyethyl)-[2,3′-bipyridin]-6′-yl)acetamide]	≤ 10 nM	IC50 (Tyk2; MSD): ≤ 10 nM
COC1CCN(c2ccc(-c3cnc(NC(C)=O)cc3Nc3ccnc(C(C)(F)F)n3)nn2)C1 (racemic) [Example 873, rac-(R)-N-(4-((2-(1,1-difluoroethyl)pyrimidin-4-yl)amino)-5-(6-(3-methoxypyrrolidin-1-yl)pyridazin-3-yl)pyridin-2-yl)acetamide]		IC50 (JH2 domain of human Tyk2; [2]): ≤ 10 nM; IC50 (Tyk2): ≤ 10 nM
CC(=O)Nc1cc(Nc2ccnc(C(C)(F)F)n2)c(-c2ccc(CN3C[C@H]4C[C@@H]3CO4)cn2)cn1 (racemic) [Example 884, rac-N-(5-(((1R,4R)-2-oxa-5-azabicyclo[2.2.1]heptan-5-yl)methyl)-4′-((2-(1,1-difluoroethyl)pyrimidin-4-yl)amino)-[2,3′-bipyridin]-6′-yl)acetamide]		IC50 (JH2 domain of human Tyk2; [2]): ≤ 10 nM; IC50 (Tyk2): ≤ 10 nM
CC(=O)Nc1cc(Nc2cc(C)nc(C(C)(F)F)n2)c([C@@H]2C[C@@H]2C#N)cn1 (relative stereo) [Example 810, rel-N-(5-((1R,2S)-2-cyanocyclopropyl)-4-((2-(1,1-difluoroethyl)-6-methylpyrimidin-4-yl)amino)pyridin-2-yl)acetamide]		IC50 (JH2 domain of human Tyk2; [2]): 10 to 100 nM; IC50 (Tyk2): ≥ 1000 nM
CC(=O)Nc1cc(Nc2cc(C)nc(C(C)(F)F)n2)c(OCC2(C)CCCCO2)cn1 (stereo not drawn) [Example 435, N-(4-((2-(1,1-difluoroethyl)-6-methylpyrimidin-4-yl)amino)-5-((2-methyltetrahydro-2H-pyran-2-yl)methoxy)pyridin-2-yl)acetamide]	≤ 10 nM	
COc1cnc(NC(C)=O)cc1Nc1cc(OC2CC2)nc(C(F)(F)F)n1 [Example 437, N-(4-((6-cyclopropoxy-2-(trifluoromethyl)pyrimidin-4-yl)amino)-5-methoxypyridin-2-yl)acetamide]	10 to 100 nM	
COc1cc(C(F)(F)F)nc(Nc2cc(NC(C)=O)ncc2OC)n1 [Example 438, N-(5-methoxy-4-((4-methoxy-6-(trifluoromethyl)pyrimidin-2-yl)amino)pyridin-2-yl)acetamide]	100 to 1000 nM	
COc1nc(C)cc(Nc2cc(NC(C)=O)ncc2OC)n1 [Example 452, N-(5-methoxy-4-((2-methoxy-6-methylpyrimidin-4-yl)amino)pyridin-2-yl)acetamide]	10 to 100 nM	
COCC12CC(c3nc(C)cc(Nc4cc(NC(C)=O)ncc4-c4ccn(C)n4)n3)(CO1)C2 [Example 561, N-(4-((2-(1-(methoxymethyl)-2-oxabicyclo[2.1.1]hexan-4-yl)-6-methylpyrimidin-4-yl)amino)-5-(1-methyl-1H-pyrazol-3-yl)pyridin-2-yl)acetamide]	10 to 100 nM	
CC(=O)Nc1cc(Nc2cc(C)nc(C(C)(F)F)n2)c(-c2nc(C)ns2)cn1 [Example 618, N-(4-((2-(1,1-difluoroethyl)-6-methylpyrimidin-4-yl)amino)-5-(3-methyl-1,2,4-thiadiazol-5-yl)pyridin-2-yl)acetamide]	≤ 10 nM	
COc1cc(C)nc(-c2cnc(NC(C)=O)cc2Nc2cc(C)nc(C(C)(F)F)n2)n1 [Example 621, N-(4-((2-(1,1-difluoroethyl)-6-methylpyrimidin-4-yl)amino)-5-(4-methoxy-6-methylpyrimidin-2-yl)pyridin-2-yl)acetamide]	10 to 100 nM	
COc1ccc(-c2cnc(NC(C)=O)cc2Nc2cc(C)nc(C(C)(F)F)n2)nc1F [Example 622, N-(4′-((2-(1,1-difluoroethyl)-6-methylpyrimidin-4-yl)amino)-6-fluorO5-methoxy-[2,3′-bipyridin]-6′-yl)acetamide]	≤ 10 nM	
CC(=O)Nc1cc(Nc2cc(C)nc(C(C)(F)F)n2)c(-c2cc(F)ccn2)cn1 [Example 624, N-(4′-((2-(1,1-difluoroethyl)-6-methylpyrimidin-4-yl)amino)-4-fluorO[2,3′-bipyridin]-6′-yl)acetamide]	≤ 10 nM	
CC(=O)Nc1cc(Nc2ccnc(C(C)(F)F)n2)c(-c2csc(C(C)(C)F)n2)cn1 [Example 713, N-(4-((2-(1,1-difluoroethyl)pyrimidin-4-yl)amino)-5-(2-(2-fluoropropan-2-yl)thiazol-4-yl)pyridin-2-yl)acetamide]	≤ 10 nM	
CC(=O)Nc1cc(Nc2ccnc(C(C)(F)F)n2)c(-c2nnc(C3CC3)o2)cn1 [Example 717, N-(5-(5-cyclopropyl-1,3,4-oxadiazol-2-yl)-4-((2-(1,1-difluoroethyl)pyrimidin-4-yl)amino)pyridin-2-yl)acetamide]	≤ 10 nM	
CC(=O)Nc1cc(Nc2cc(C)nc(C(C)(F)F)n2)c(N(C)C)cn1 [Example 725, N-(4-((2-(1,1-difluoroethyl)-6-methylpyrimidin-4-yl)amino)-5-(dimethylamino)pyridin-2-yl)acetamide]	100 to 1000 nM	
CC(=O)Nc1cc(Nc2cc(C)nc(C(C)(F)F)n2)c(N2CCCC2)cn1 [Example 726, N-(4-((2-(1,1-difluoroethyl)-6-methylpyrimidin-4-yl)amino)-5-(pyrrolidin-1-yl)pyridin-2-yl)acetamide]	10 to 100 nM	
CC(=O)Nc1cc(Nc2cc(C)nc(C(C)(F)F)n2)c(N2CCOCC2)cn1 [Example 727, N-(4-((2-(1,1-difluoroethyl)-6-methylpyrimidin-4-yl)amino)-5-morpholinopyridin-2-yl)acetamide]	100 to 1000 nM	
CC(=O)Nc1cc(Nc2ccnc(C(C)(F)F)n2)c(-n2cc(C#N)cn2)cn1 [Example 732, N-(5-(4-cyanO1H-pyrazol-1-yl)-4-((2-(1,1-difluoroethyl)pyrimidin-4-yl)amino)pyridin-2-yl)acetamide]	10 to 100 nM	
CC(=O)Nc1cc(Nc2ccnc(C(C)(F)F)n2)c(-n2cnc(C)n2)cn1 [Example 734, N-(4-((2-(1,1-difluoroethyl)pyrimidin-4-yl)amino)-5-(3-methyl-1H-1,2,4-triazol-1-yl)pyridin-2-yl)acetamide]	100 to 1000 nM	
CC(=O)Nc1cc(Nc2cc(C)nc(C(C)(F)F)n2)c(-n2cnc(C)n2)cn1 [Example 735, N-(4-((2-(1,1-difluoroethyl)-6-methylpyrimidin-4-yl)amino)-5-(3-methyl-1H-1,2,4-triazol-1-yl)pyridin-2-yl)acetamide]	10 to 100 nM	
CC(=O)Nc1cc(Nc2cc(C)nc(C(C)(F)F)n2)c(-c2cc(CN3CCOCC3)n(C)n2)cn1 [Example 739, N-(4-((2-(1,1-difluoroethyl)-6-methylpyrimidin-4-yl)amino)-5-(1-methyl-5-(morpholinomethyl)-1H-pyrazol-3-yl)pyridin-2-yl)acetamide]	≤ 10 nM	
CC(=O)Nc1cc(Nc2cc(C)nc(C(C)(F)F)n2)c(-c2cnc(C(C)N3CCCC3)cn2)cn1 (stereo not drawn) [Example 742, N-(4-((2-(1,1-difluoroethyl)-6-methylpyrimidin-4-yl)amino)-5-(5-(1-(pyrrolidin-1-yl)ethyl)pyrazin-2-yl)pyridin-2-yl)acetamide]	≤ 10 nM	
CC(=O)Nc1cc(Nc2cc(C)nc(C34COC(C3)C4)n2)c(-c2ccc(F)cn2)cn1 [Example 752, N-(4′-((2-(2-oxabicyclo[2.1.1]hexan-4-yl)-6-methylpyrimidin-4-yl)amino)-5-fluorO[2,3′-bipyridin]-6′-yl)acetamide]		IC50 (JH2 domain of human Tyk2; [2]): ≤ 10 nM
CC(=O)Nc1cc(Nc2cc(C)nc(C(C)(F)F)n2)c(-c2nc(CN3CCN(C)CC3)cs2)cn1 [Example 785, N-(4-((2-(1,1-difluoroethyl)-6-methylpyrimidin-4-yl)amino)-5-(4-((4-methylpiperazin-1-yl)methyl)thiazol-2-yl)pyridin-2-yl)acetamide]		IC50 (JH2 domain of human Tyk2; [2]): ≤ 10 nM
CC(=O)Nc1cc(Nc2cc(C)nc(C(C)(F)F)n2)c(-c2cc(CN3CCOCC3)ccn2)cn1 [Example 806, N-(4′-((2-(1,1-difluoroethyl)-6-methylpyrimidin-4-yl)amino)-4-(morpholinomethyl)-[2,3′-bipyridin]-6′-yl)acetamide]		IC50 (JH2 domain of human Tyk2; [2]): ≤ 10 nM
COCCOc1cc(Nc2ccnc(NC(C)=O)c2)nc(C(C)(F)F)n1 [Example 809, N-(4-((2-(1,1-difluoroethyl)-6-(2-methoxyethoxy)pyrimidin-4-yl)amino)pyridin-2-yl)acetamide]		IC50 (JH2 domain of human Tyk2; [2]): 10 to 100 nM
CC(=O)Nc1cc(Nc2cccc(C(C)(F)F)n2)c(-c2ccc3c(n2)OCC(C)(C)O3)cn1 [Example 820, N-(4-((6-(1,1-difluoroethyl)pyridin-2-yl)amino)-5-(2,2-dimethyl-2,3-dihydro-[1,4]dioxino[2,3-b]pyridin-6-yl)pyridin-2-yl)acetamide]		IC50 (JH2 domain of human Tyk2; [2]): ≤ 10 nM
